Data from patent US20160067267A1, “MYO-INOSITOL TRISPYROPHOSPHATE AS AN ANTI-OBESITY AGENT” (NormOxys, Inc., priority 2013, published 2016).

Key:
[1] = Third study: weight loss of overweight mice on normal food drinking ITPP solution, about 30 days; format: in vivo, Balb/c-mice; details: FIG. 3, normal mouse food, water with ITPP 10 g per liter
Method: In a third study the group with the 10 mice which had gained weight (˜30%) was divided in two groups (5 animals per cage). For 1 month, one group drank water while the other one drank an ITPP-solution (10 g/L) for about 30 days until the date of observation. The food was normal mouse food as before (pellets from SAFE, France). The body weights of the mice were measured 4 times until the final day.

[2] = Second study: prevention of weight gain on high fat diet, ITPP in drinking water, 70 days; format: in vivo; details: FIG. 2
Method: (§1) Experiments were conducted in analogue ways. First, 30 Balb/c-mice, 10 mice in each group, were assessed. Group 1 was a control group; mice were fed with normal mouse food and water for the whole duration of the experiment (120 days). […] Group III was fed with high fat diet, normal food and, instead of normal water, animals drank an ITPP solution for the duration of the experiment of (ITPP). The concentration was 10 g ITPP per liter water, containing no calcium salt, pH˜6.8-7.2).
(§2) The HFD was 235HF (U8955 version 9) casein 20%, corn starch 13%, sucrose 24.3%, cellulose 5%, malto dextrin 2.2%, lard 25%, soja oil 2.5%, mineral 205B SAFE 7%, and vitamine 200 SAFE 1%.
(§3) All food, water, and ITPP were given ad libitum. In 5 days intervals, body weights from each animal were recorded.
As before, in 5 days intervals body weights of the Balb/c-mice were measured.

[3] = First study: prevention of weight gain on high fat diet, ITPP in drinking water, 120 days; format: in vivo
Method: as §1, §2, §3

SMILES: O=P1(O)OC2C3OP(=O)(O)OP(=O)(O)OC3C3OP(=O)(O)OP(=O)(O)OC3C2OP(=O)(O)O1 (stereo not drawn) [ITPP, inositol-tripyrophosphate]
- weight loss versus untreated group [1]: lost considerably more weight than the untreated group
- tolerability of ITPP ([2]; HFD + ITPP 10 g/L in drinking water): tolerated very well
- weight of Balb/c mice ([2]; HFD/ITPP consumers, 10 g/L in drinking water, 70 days, HFD/water mice ~40 g): < 30 g
- weight gain ([2]; HFD/ITPP consumers, 70 days, HFD/water mice gained approximately 30%): did not gain significant weight
- weight of Balb/c mice ([3]; FIG. 1, HFD + ITPP solution 10 g per liter water ad libitum, oral, 70 days after beginning, HFD/water mice ~40 g): ~30 g
- tolerability of ITPP solution ([3]; FIG. 1, HFD + ITPP solution 10 g/L ad libitum, oral): well tolerated
- first day with significant differences in weight, HFD/water versus HFD/ITPP ([3]; HFD + ITPP in water versus HFD + water): 10 days
- weight increase of ITPP drinking group on HFD ([3]; HFD + ITPP in water, whole period of the experiment, compared with normal-food control group): did not increase their weight at all
- mortality and general condition ([3]; orally offered ITPP solution with HFD, two periods (120 days and 70 days), fur, eyes, vitality normal): No animal died or was suffering
